Converted amounts (≈) assume the structure as drawn. The source made the active and inactive calls. The calls are words filed in the database; no cut-off is given here. Residues, ends and D or L forms follow the SMILES beside them. *: point of attachment. Myristoyl = CCCCCCCCCCCCCC(=O)*; Lauroyl = CCCCCCCCCCCC(=O)*
What was measured:
[1] = Therapeutic index, ratio of MHC for mouse RBC to geometric mean of peptide MIC for Staphylococcus epidermidis ATCC 12228; format: toxicity; conditions: pooled result: one value given for 6 cell lines, strains, targets or settings, read-out: TI
Staphylococcus aureus [2] = assay: Antibiofilm activity against Staphylococcus aureus ATCC 25923 at 4 to 8 uM after 24 hrs by LIVE/DEAD (SYTO-9/PI) staining based confocal laser scanning microscopic analysis; format: functional, organism-based; conditions: dose 4-8 µM
Erythrocyte = assay: Hemolytic activity against mouse erythrocytes measured after 1 hr; format: ADME, cell-based
Staphylococcus aureus [3] = assay: Induction of nucleic acid leakage in Staphylococcus aureus ATCC 25923 at 4 times MIC; format: functional
Cell membrane [4] = assay: Induction of membrane disruption in Staphylococcus aureus ATCC 25923 assessed as irregular atrophy at 2 to 4 times MIC measured after 2 to 4 hrs by SEM analysis; format: subcellular; conditions: time 2-4 hrs
Staphylococcus aureus [5] = assay: Potentiation of ciprofloxacin-induced antimicrobial activity against ciprofloxacin-resistant Staphylococcus aureus ATCC 25923 assessed as change in ciprofloxacin MIC at 4 uM after 18 hrs by broth microdilution method relative to ciprofloxacin MIC; format: functional
Staphylococcus aureus [6] = assay: Antimicrobial activity against methicillin-resistant Staphylococcus aureus 113 measured after 18 hrs in presence of polymyxin B by checkerboard assay; format: functional, organism-based
Staphylococcus aureus [7] = assay: Antibiofilm activity against Staphylococcus aureus ATCC 25923 assessed as reduction in biofilm thickness after 24 hrs using LIVE/LEAD (SYTO-9/PI) staining by confocal laser scanning microscopy based 3D image analysis; format: functional, organism-based; conditions: dose 4-8 µM
Cell membrane [8] = assay: Induction of membrane disruption in Staphylococcus aureus ATCC 25923 assessed as appearance of rough membrane at 2 to 4 times MIC measured after 2 to 4 hrs by SEM analysis; format: subcellular; conditions: time 2-4 hrs
Staphylococcus aureus [9] = assay: Antimicrobial activity against ciprofloxacin-resistant Staphylococcus aureus ATCC 25923 at 0.5 to 8 uM measured after 18 hrs in presence of ciprofloxacin by checkerboard assay; format: functional, organism-based; conditions: dose 0.5-8 µM
Cell membrane [10] = assay: Induction of membrane disruption in Staphylococcus aureus ATCC 25923 assessed as PI-positive cells at 2 times MIC measured after 2 hrs by propidium iodide staining based flow cytometry relative to control
Staphylococcus aureus [11] = assay: Ratio of MIC for antimicrobial activity against Staphylococcus aureus ATCC 25923 in presence of 10% serum to MIC for antimicrobial activity against Staphylococcus aureus ATCC 25923 in absence of serum; format: functional
Staphylococcus aureus [12] = assay: Potentiation of ciprofloxacin-induced antimicrobial activity against ciprofloxacin-resistant Staphylococcus aureus ATCC 25923 assessed as change in ciprofloxacin MIC at 2 uM after 18 hrs by broth microdilution method relative to ciprofloxacin MIC; format: functional
Staphylococcus aureus [13] = assay: Antimicrobial activity against Staphylococcus aureus ATCC 25923 after 18 hrs in presence of ZnCl2 by broth microdilution method; format: functional
Staphylococcus aureus [14] = assay: Antibiofilm activity against ciprofloxacin-resistant Staphylococcus aureus ATCC 25923 at 0.5 to 8 uM after 24 hrs by crystal violet staining based assay; format: functional, organism-based; conditions: dose 0.5-8 µM
Staphylococcus aureus [15] = assay: Antimicrobial activity against ciprofloxacin-resistant Staphylococcus aureus ATCC 25923 after 18 hrs in presence of polymyxin B by checkerboard assay; format: functional, organism-based
Staphylococcus aureus [16] = assay: Antimicrobial activity against Staphylococcus aureus ATCC 25923 after 18 hrs in presence of CaCl2 by broth microdilution method; format: functional
Staphylococcus aureus [17] = assay: Antimicrobial activity against methicillin-resistant Staphylococcus aureus 75 at 0.5 to 8 uM measured after 18 hrs in presence of ciprofloxacin by checkerboard assay; format: functional, organism-based; conditions: dose 0.5-8 µM
Staphylococcus aureus [18] = assay: Potentiation of EtBr-induced antimicrobial activity against ciprofloxacin-resistant Staphylococcus aureus ATCC 25923 at 1 to 2 uM after 18 hrs by broth microdilution method; format: functional, organism-based; conditions: dose 1-2 µM
Staphylococcus aureus [19] = assay: Antimicrobial activity against Staphylococcus aureus ATCC 25923 after 18 hrs in presence of 5% serum by broth microdilution method; format: functional
[20] = system: Staphylococcus epidermidis; assay: Antimicrobial activity against Staphylococcus epidermidis ATCC 12228 after 18 hrs by broth microdilution method; format: functional
Staphylococcus aureus [21] = assay: Antimicrobial activity against Staphylococcus aureus ATCC 25923 after 18 hrs in presence of 10% serum by broth microdilution method; format: functional
Staphylococcus aureus [22] = assay: Antimicrobial activity against Staphylococcus aureus ATCC 25923 after 18 hrs in presence of KCl by broth microdilution method; format: functional
Staphylococcus aureus [23] = assay: Potentiation of ciprofloxacin-induced antimicrobial activity against methicillin-resistant Staphylococcus aureus 75 assessed as change in ciprofloxacin MIC at 1 uM after 18 hrs by broth microdilution method relative to ciprofloxacin MIC; format: functional
Staphylococcus aureus [24] = assay: Antibiofilm activity against Staphylococcus aureus ATCC 25923 preformed biofilm assessed as reduction in preformed biofilm thickness after 24 hrs using LIVE/LEAD (SYTO-9/PI) staining by confocal laser scanning microscopy based 3D image analysis; format: functional, organism-based; conditions: dose 32-64 µM
Staphylococcus aureus [25] = assay: Antimicrobial activity against Staphylococcus aureus ATCC 29213 after 18 hrs by broth microdilution method; format: functional
Staphylococcus aureus [26] = assay: Antimicrobial activity against ciprofloxacin-treated persistent form of Staphylococcus aureus ATCC 25923 assessed as bacterial killing at 8 times MIC preincubated up to 48 hrs followed by compound washout and subsequent replating on MHB agar by colony counting method; format: functional, organism-based; conditions: time hrs <=48
Lipopolysaccharide (LPS) = assay: Binding affinity to LPS (unknown origin) assessed as bacterial killing at 2 times MIC preincubated for 1 hr followed by Staphylococcus aureus ATCC 25923 addition and measured after 2 hrs by colony counting method; conditions: time 3.0 hrs
Cell membrane [27] = assay: Induction of membrane disruption in Staphylococcus aureus ATCC 25923 measured after 2 hrs by propidium iodide staining based confocal laser scanning microscopic analysis; format: subcellular
[28] = system: Staphylococcus epidermidis; assay: Antimicrobial activity against Staphylococcus epidermidis ATCC 12228 at 0.5 times MIC after 15 passages by broth microdilution method; format: functional, organism-based
[29] = system: Staphylococcus epidermidis; assay: Potentiation of ciprofloxacin-induced antimicrobial activity against ciprofloxacin-resistant Staphylococcus epidermidis ATCC 12228 at 1 uM after 18 hrs by broth microdilution method; format: functional, organism-based
Staphylococcus aureus [30] = assay: Induction of reactive oxygen species generation in Staphylococcus aureus ATCC 25923 by […] dye based fluorescence assay; format: functional, organism-based
[31] = system: Staphylococcus epidermidis; assay: Potentiation of ciprofloxacin-induced antimicrobial activity against Staphylococcus epidermidis ATCC 12228 at 0.5 times MIC after 15 passages by broth microdilution method; format: functional, organism-based
[32] = system: Staphylococcus epidermidis; assay: Potentiation of ciprofloxacin-induced antimicrobial activity against ciprofloxacin-resistant Staphylococcus epidermidis ATCC 12228 assessed as change in ciprofloxacin MIC at 2 uM after 18 hrs by broth microdilution method relative to ciprofloxacin MIC; format: functional
Staphylococcus aureus [33] = assay: Potentiation of ciprofloxacin-induced antimicrobial activity against ciprofloxacin-resistant Staphylococcus aureus ATCC 25923 assessed as ciprofloxacin MIC at 0.5 times MIC after 15 passages by broth microdilution method; format: functional
Cell membrane [34] = assay: Induction of membrane disruption in Staphylococcus aureus ATCC 25923 assessed as increase in cell content leakage at 4 times MIC measured after 2 to 4 hrs by SEM analysis; format: subcellular; conditions: time 2-4 hrs
Staphylococcus aureus [35] = assay: Antibiofilm activity against Staphylococcus aureus ATCC 25923 assessed as biofilm thickness at 4 uM after 24 hrs using LIVE/LEAD (SYTO-9/PI) staining by confocal laser scanning microscopy based 3D image analysis (reference value: 55 micrometer); format: functional

Row | SMILES | selectivity ratio [1] | Activity (Staphylococcus aureus [2]) | MHC10 (Erythrocyte) | Activity (Staphylococcus aureus [3]) | Activity (Cell membrane [4]) | fold change (FC) (Staphylococcus aureus [5]) | Activity (Staphylococcus aureus [6]) | Activity (Staphylococcus aureus [7]) | Activity (Cell membrane [8]) | Activity (Staphylococcus aureus [9]) | Activity (Cell membrane [10]) | Ratio (Staphylococcus aureus [11]) | fold change (FC) (Staphylococcus aureus [12]) | MIC (Staphylococcus aureus [13]) | Activity (Staphylococcus aureus [14]) | Activity (Staphylococcus aureus [15]) | MIC (Staphylococcus aureus [16]) | Activity (Staphylococcus aureus [17]) | Activity (Staphylococcus aureus [18]) | MIC (Staphylococcus aureus [19]) | also measured
1 | CCCCCCCCCCCC(=O)N[C@@H](CCCNC(=N)N)C(=O)N[C@@H](CCCNC(=N)N)C(=O)N[C@@H](Cc1c[nH]c2ccccc12)C(N)=O (Lauroyl-Arg-Arg-Trp-NH2) | 34.9 | Active | 128 µM | inactive | Active | 2 | Active | Dose-dependent effect | Active | Active | 44.3% | 8 | 2 | 8 µM | Active | Active | 16 µM | Active | Active | 64 µM | MIC [20]: 4 µM (≈ 2.79 µg/mL); MIC (Staphylococcus aureus [21]): 64 µM; MIC (Staphylococcus aureus [22]): 8 µM; fold change (FC) (Staphylococcus aureus [23]): 2; Activity (Staphylococcus aureus [24]): Dose-dependent effect; MIC (Staphylococcus aureus [25]): 4 µM (≈ 2.79 µg/mL); Activity (Staphylococcus aureus [26]): Active; Activity (Lipopolysaccharide (LPS)): Active; Activity (Cell membrane [27]): Dose-dependent effect; Activity [28]: Active; Activity [29]: inactive; Activity (Staphylococcus aureus [30]): Active; Activity [31]: Active; fold change (FC) [32]: 2; MIC (Staphylococcus aureus [33]): 8 µM; Activity (Cell membrane [34]): Active; Activity (Staphylococcus aureus [35]): 24 um
2 | CCCCCCCCCCCCCC(=O)N[C@@H](CCCNC(=N)N)C(=O)N[C@@H](Cc1c[nH]c2ccccc12)C(=O)N[C@@H](Cc1c[nH]c2ccccc12)C(N)=O (Myristoyl-Arg-Trp-Trp-NH2) | 56.9 | Active | > 256 µM | inactive | Active | 2 | Active | Dose-dependent effect | Active | Active | 74.8% | 2 | 2 | 8 µM | Active | Active | 8 µM | Active | Active | 16 µM | MIC [20]: 16 µM (≈ 12.1 µg/mL); MIC (Staphylococcus aureus [21]): 16 µM; MIC (Staphylococcus aureus [22]): 8 µM; fold change (FC) (Staphylococcus aureus [23]): 2; Activity (Staphylococcus aureus [24]): Dose-dependent effect; MIC (Staphylococcus aureus [25]): 8 µM (≈ 6.05 µg/mL); Activity (Staphylococcus aureus [26]): Active; Activity (Lipopolysaccharide (LPS)): Active; Activity (Cell membrane [27]): Dose-dependent effect; Activity [28]: Active; Activity [29]: inactive; Activity (Staphylococcus aureus [30]): Active; Activity [31]: Active; fold change (FC) [32]: 2; MIC (Staphylococcus aureus [33]): 8 µM; Activity (Cell membrane [34]): Active; Activity (Staphylococcus aureus [35]): 30 um

Reference: ChEMBL document CHEMBL4706653, “Ultra-short lipopeptides against gram-positive bacteria while alleviating antimicrobial resistance” (Eur J Med Chem, 2021)
